Test results taken from US10640520B2, “Boronic acid derivatives” (MERCK PATENT GMBH, priority 2014, dated 2020).

What was measured:
LMP7 = LMP7 (Homo sapiens, UniProt P20618+P28062); assay: Determination of LMP7 activity (fluorescence intensity assay, Suc-LLVY-AMC); assay type: biochemical; settings: purified human immunoproteasome
Description: Determination of LMP7 Activity:
Measurement of LMP7 inhibition is performed in 384 well format based on fluorescence intensity assay.
(§1) Purified human immunoproteasome (0.25 nM) and serial diluted compounds in DMSO (range of concentrations from 30 μM to 15 pM) or controls are incubated for 20 minutes or 120 minutes (long incubation) at 25° C. in assay buffer containing 50 mM Tris pH 7.4, 0.03% SDS, 1 mM EDTA and 1% DMSO. The reaction is initiated by the addition of the fluorogenic peptide substrate, Suc-LLVY-AMC (Bachem 1-1395), at a concentration of 40 μM. After 60 minutes of incubation at 37° C., fluorescence intensity is measured at λex=350 nm and λem=450 nm with a fluorescence reader (Perkin Elmer Envision reader or equivalent).
(§2) Unless indicated otherwise the results are obtained after incubation for 20 minutes.

Beta5 = Beta5 (Homo sapiens, UniProt P20618+P28074); assay: Determination of Beta5 activity (fluorescence intensity assay, Suc-LLVY-AMC); assay type: biochemical; settings: for IC50: purified human constitutive proteasome
Description: Determination of Beta5 Activity:
Measurement of Beta5 inhibition is performed in 384 well format based on fluorescence intensity assay.
as §1, with “constitutive proteasome (1.25” for “immunoproteasome (0.25”, “[…])” for “pM)”
as §2

[1] = target: LMP7 subunit of the immunoproteasome (Homo sapiens, UniProt P20618+P28062); settings: Singh et al., Br. J. Hematology 152(2): 155-163; cited from earlier work

| IC50 (LMP7; incubation for 20 minutes) | Selectivity LMP7 vs Beta5 (Beta5; incubation for 20 minutes) | IC50 (Beta5; incubation for 20 minutes) | IC50 (LMP7; long incubation (120 min)) | Selectivity LMP7 vs Beta5 (Beta5; long incubation (120 min)) | IC50 (Beta5; long incubation (120 min)) | Structure (SMILES) | selectivity for the LMP7 subunit of the immunoproteasome [1] |
| --- | --- | --- | --- | --- | --- | --- | --- |
| < 50 nM | ++ (10 ≤ Selectivity < 30) | 50 to 500 nM |  |  |  | O=C(CCN1CCOCC1=O)N[C@@H](Cc1coc2ccccc12)B(O)O [Compound 28, [(1R)-2-(benzofuran-3-yl)-1-[3-(3-oxomorpholin-4-yl)propanoylamino]-ethyl]boronic acid] |  |
| < 50 nM | +++ (30 ≤ Selectivity < 50) | 50 to 500 nM |  |  |  | O=C(CCN1CCCOC1=O)N[C@@H](Cc1coc2ccccc12)B(O)O [Compound 30, [(1R)-2-(benzofuran-3-yl)-1-[3-(2-oxo-1,3-oxazinan-3-yl)propanoylamino]ethyl]boronic acid] |  |
| < 50 nM | +++++ (Selectivity ≥ 70) | 500 to 5000 nM |  |  |  | Cc1ccc(C[C@H](NC(=O)CCN2CCCCC2=O)B(O)O)c(C)c1 [Compound 31, [(1R)-2-(2,4-dimethylphenyl)-1-[3-(2-oxo-1-piperidyl)propanoylamino]-ethyl]boronic acid] |  |
| < 50 nM | ++ (10 ≤ Selectivity < 30) | 50 to 500 nM |  |  |  | O=C(CN1C(=O)CSC1=O)N[C@@H](Cc1coc2ccccc12)B(O)O [Compound 33, [(1R)-2-(benzofuran-3-yl)-1-[[2-(2,4-dioxothiazolidin-3-yl)acetyl]-amino]ethyl]boronic acid] |  |
| < 50 nM | ++ (10 ≤ Selectivity < 30) | 50 to 500 nM |  |  |  | CN1CCN(CCC(=O)N[C@@H](Cc2coc3ccccc23)B(O)O)C(=O)C1 [Compound 35, [(1R)-2-(benzofuran-3-yl)-1-[3-(4-methyl-2-oxo-piperazin-1-yl)propanoylamino]ethyl]boronic acid] |  |
| 50 to 500 nM | +++ (30 ≤ Selectivity < 50) | 500 to 5000 nM |  |  |  | Cc1ccc(C[C@H](NC(=O)C2CCC(=O)N2c2ccccc2)B(O)O)c(C)c1 (stereo partly drawn) [Compound 36, [(1R)-2-(2,4-dimethylphenyl)-1-[(5-oxo-1-phenyl-pyrrolidine-2-carbonyl)amino]-ethyl]boronic acid] |  |

Continued, compound first:

| Structure (SMILES) | IC50 (LMP7; incubation for 20 minutes) | Selectivity LMP7 vs Beta5 (Beta5; incubation for 20 minutes) | IC50 (Beta5; incubation for 20 minutes) | IC50 (LMP7; long incubation (120 min)) | Selectivity LMP7 vs Beta5 (Beta5; long incubation (120 min)) | IC50 (Beta5; long incubation (120 min)) | selectivity for the LMP7 subunit of the immunoproteasome [1] |
| --- | --- | --- | --- | --- | --- | --- | --- |
| O=C(CCN1CC(c2ccccc2)OC1=O)N[C@@H](Cc1coc2ccccc12)B(O)O (stereo partly drawn) [Compound 29, [(1R)-2-(benzofuran-3-yl)-1-[3-(2-oxo-5-phenyl-oxazolidin-3-yl)propanoylamino]ethyl]boronic acid] | < 50 nM | ++ (10 ≤ Selectivity < 30) | < 50 nM |  |  |  |  |
| Cc1ccc(C[C@H](NC(=O)CCN2CCCCS2(=O)=O)B(O)O)c(C)c1 [Compound 32, [(1R)-2-(2,4-dimethylphenyl)-1-[3-(1,1-dioxothiazinan-2-yl)propanoylamino]ethyl]boronic acid] | < 50 nM | +++ (30 ≤ Selectivity < 50) | 500 to 5000 nM |  |  |  |  |
| CCN1CCN(CCC(=O)N[C@@H](Cc2coc3ccccc23)B(O)O)C(=O)C1=O [Compound 34, [(1R)-2-(benzofuran-3-yl)-1-[3-(4-ethyl-2,3-dioxo-piperazin-1-yl)propanoylamino]ethyl]boronic acid] | < 50 nM | ++ (10 ≤ Selectivity < 30) | 50 to 500 nM |  |  |  |  |
| O=C(N[C@@H](Cc1coc2ccccc12)B(O)O)C1CCCN1c1ccccc1 (stereo partly drawn) [Compound 37, [(1R)-2-(benzofuran-3-yl)-1-[(1-phenylpyrrolidine-2-carbonyl)amino]ethyl]boronic acid] | < 50 nM | +++++ (Selectivity ≥ 70) | 500 to 5000 nM |  |  |  |  |
| Cc1cccc2c(C[C@H](NC(=O)CCN3C(=O)CCC3(C)C)B(O)O)coc12 [Compound 38, [(1R)-1-[3-(2,2-dimethyl-5-oxo-pyrrolidin-1-yl)propanoylamino]-2-(7-methylbenzofuran-3-yl)ethyl]boronic acid] |  |  |  | < 50 nM | +++++ (Selectivity ≥ 70) | 500 to 5000 nM |  |
| O=C(CCN1CCCC1=O)N[C@@H](C[C@@H]1COc2ccccc21)B(O)O [Compound 39, [(1R)-2-[(3S)-2,3-dihydrobenzofuran-3-yl]-1-[3-(2-oxopyrrolidin-1-yl)propanoylamino]ethyl]boronic acid] |  |  |  | < 50 nM | +++++ (Selectivity ≥ 70) | 500 to 5000 nM |  |
| Cc1cccc2c1OC[C@H]2C[C@H](NC(=O)CCN1CCCCC1=O)B(O)O [Compound 40, [(1R)-2-[(3S)-7-methyl-2,3-dihydrobenzofuran-3-yl]-1-[3-(2-oxo-1-piperidyl)propanoylamino]ethyl]boronic acid] |  |  |  | < 50 nM | +++++ (Selectivity ≥ 70) | > 5000 nM |  |
| CC1=C(C(=O)N[C@H](C)C(=O)N[C@@H](Cc2c[nH]c3ccccc23)C(=O)N[C@@H](Cc2ccccc2)C(=O)[C@@]2(C)CO2)Cc2ccccc21 [PR-924] |  |  |  |  |  |  | 100 fold |
